Patent publication US20240148710A1, “INHIBITORS OF CYTOCHROME P450 FAMILY 7 SUBFAMILY B MEMBER 1 (CYP7B1) FOR USE IN MOBILIZATION OF HEMATOPOIETIC STEM AND PROGENITOR CELLS” (priority 2022, published 2024)
“Also recorded” adds a separate entry of the source.

How the values were obtained:
colony-forming HSPCs [1] = test: Mobilization of colony-forming HSPCs into the peripheral blood of mice (CFU count of PBMCs in methylcellulose culture); format: in vivo, C57BL/6 mice; conditions: 50 mg/kg/day oral gavage for 4 days, AMD3100 s.c. one hour before analyses, no G-CSF; trends; FIGS. 5A, 5B
colony-forming HSPCs [2] = test: as above; format: in vivo, C57BL/6 mice
Experimental: To test whether co-administration of 27HC with G-CSF plus another clinically-used HSC mobilizing agent, AMD3100 (a CXCR4 chemokine receptor antagonist that is also known as plerixafor), further enhances HSC mobilization. Two-month-old C57BL/6 mice were treated with a single agent alone, a combination of two agents (27HC+AMD3100, or G-CSF+AMD3100), all three agents combined, or vehicle alone (2-hydroxypropyl-β-cyclodextrin for 27HC, PBS for G-CSF, and PBS for AMD3100).
(§1) Mice were treated with 27HC (10 mg/kg/day) and/or G-CSF (250 μg/kg/day) for 4 days and then treated with AMD3100 (5 mg/kg) one hour before the peripheral blood collection (FIG. 1). Peripheral blood mononuclear cells (PBMCs) were isolated by density gradient centrifugation, and were seeded in the methylcellulose culture medium. Colonies were counted after 12 days of culture.
(§2) This experiment was performed as described in Example 1, except, clotrimazole (50 mg/kg/day) was used instead of 27HC.

colony-forming HSPCs [3] = test: Mobilization of colony-forming HSPCs into the peripheral blood of sickle cell model mice (CFU count); format: in vivo, sickle cell model mice (Townes model mice); conditions: clotrimazole 50 mg/kg/day i.p. for 4 days, AMD3100 s.c. one hour before analyses, FIGS. 4A, 4B
Experimental: as §1, §2

HSCs [4] = test: HSC proliferation and mobilization in mice treated with ERα ligands; format: in vivo; conditions: E2: male mice and non-pregnant females
From the text: However, the mechanism by which E2 and 27HC, two endogenous ERα ligands, differentially regulate HSCs is unknown. […] E2 levels increase during pregnancy, when extramedullary hematopoiesis (EMH) is induced to increase the production of red blood cells. In addition to increased HSC proliferation, EMH during pregnancy requires increased HSC mobilization, which the present inventors found to also depend on ERα in HSCs. […] Thus, through their differential effects on HSC behavior in vivo—E2 and 27HC act in concert to promote hematopoiesis during pregnancy.

HSCs [5] = conditions: recently demonstrated; cited from earlier work
colony-forming HSPCs [6] = conditions: AMD3100 s.c. injection; cited from earlier work

| Compound | CFUs (including CFU-gmEM) in the peripheral blood, two-agent combination with AMD3100 versus AMD3100 single agent (colony-forming HSPCs [1]) | Effect of administration on HSC proliferation and mobilization (found by the present inventors) (HSCs [4]) | Effect of treatment of mice on HSC proliferation and mobilization (HSCs [5]) | other results |
| --- | --- | --- | --- | --- |
| CC(C)(C(=O)c1cccnc1)c1cccnc1 [metyrapone] | generated more CFUs, including CFU-gmEM, than the single-agent AMD3100 treatment |  |  |  |
| Clc1ccccc1C(c1ccccc1)(c1ccccc1)n1ccnc1 [clotrimazole] | synergistic effects with the single-agent AMD3100 treatment |  |  | CFUs (including CFU-gmEM) in the peripheral blood, three-agent combination with G-CSF and AMD3100 versus G-CSF and AMD3100 (colony-forming HSPCs [2]; clotrimazole 50 mg/kg/day i.p. for 4 days, G-CSF s.c. for 4 days, AMD3100 one hour before analyses, FIGS. 3C, 3D): more CFUs, including CFU-gmEM, than the two-agent combination treatment with G-CSF and AMD3100; CFUs in the peripheral blood, two-agent combination with AMD3100 versus AMD3100 single agent (colony-forming HSPCs [2]; clotrimazole 50 mg/kg/day i.p., AMD3100 s.c. one hour before analyses, FIGS. 3A, 3B): significantly more CFUs than the single-agent AMD3100 treatment; CFUs (including CFU-gmEM) in the peripheral blood, two-agent combination with AMD3100 versus AMD3100 single agent (colony-forming HSPCs [3]): significantly more CFUs, including CFU-gmEM, than the single-agent AMD3100 treatment |
| C[C@]12CC[C@@H]3c4ccc(O)cc4CC[C@H]3[C@@H]1CC[C@@H]2O [E2, 17β-estradiol] |  | induces HSC proliferation but not mobilization | induces HSC proliferation but not mobilization |  |
| C[C@@H](c1ncncc1F)[C@](O)(Cn1cncn1)c1ccc(F)cc1F [voriconazole] | generated more CFUs, including CFU-gmEM, than the single-agent AMD3100 treatment |  |  |  |
| C[C@@H](CO)CCC[C@@H](C)[C@H]1CC[C@H]2[C@@H]3CC=C4C[C@@H](O)CC[C@]4(C)[C@H]3CC[C@]12C [27HC, 27-hydroxycholesterol] |  | induces HSC mobilization (but not proliferation) | induces ERα-dependent HSC mobilization but not proliferation | CFUs (including CFU-gmEM) in the peripheral blood, three-agent combination with G-CSF and AMD3100 versus G-CSF and AMD3100 (colony-forming HSPCs [2]; 27HC 10 mg/kg/day and G-CSF 250 μg/kg/day s.c. for 4 days, AMD3100 5 mg/kg one hour before collection, FIGS. 2C, 2D): significantly more CFUs, including CFU-gmEM, than the two-agent combination treatment with G-CSF and AMD3100; also recorded: mobilized more colony-forming HSPCs as compared to a single agent alone or a combination of two agents; CFUs in the peripheral blood, two-agent combination with AMD3100 versus AMD3100 single agent (colony-forming HSPCs [2]; 27HC 10 mg/kg/day s.c. for 4 days, AMD3100 5 mg/kg s.c. one hour before blood collection, FIGS. 2A, 2B): significantly more CFUs than the AMD3100 single-agent treatment; also recorded: mobilized colony-forming HSPCs significantly more than AMD3100 alone; HSC mobilization on treating mice with 27HC (colony-forming HSPCs [2]; FIG. 2): promotes HSC mobilization |
| c1cc(CN2CCCNCCNCCCNCC2)ccc1CN1CCCNCCNCCCNCC1 [AMD3100] |  |  |  | Time of peak mobilization of HSCs after AMD3100 injection (colony-forming HSPCs [6]): one hour post administration |
